According to ChEMBL document CHEMBL3396945, “Modified calanolides incorporated with furan-2-nitro mimics against Mycobacterium tuberculosis” (2015):
≈ marks a conversion by molar mass, not a printed value.

What was measured:
[1] = test system: Mycobacterium tuberculosis; assay: microbe, parasite or virus in culture; type: functional
[2] = test system: Mycobacterium tuberculosis; assay: microbe, parasite or virus in culture; type: functional; remark: listed apart in the source

| SMILES | MIC [1] | MIC [2] |
| --- | --- | --- |
| CCCc1cc(=O)oc2c1c1c(c3oc(C(=O)OCC)cc32)C=CC(C)(C)O1 | > 50 µg/mL | > 50 µg/mL |
| CCCc1cc(=O)oc2c1c1c(c3oc(C(=O)O)cc32)C=CC(C)(C)O1 | > 50 µg/mL | > 50 µg/mL |
| CCCc1cc(=O)oc2c1c1c(c3oc(C(=O)NN)cc32)C=CC(C)(C)O1 | 50 µg/mL (≈ 136 µM) | > 50 µg/mL |
| CCCc1cc(=O)oc2c1c1c(c3oc(C(=O)NNC(=O)c4ccncc4)cc32)C=CC(C)(C)O1 | 25 µg/mL (≈ 52.8 µM) | > 50 µg/mL |
| CCCc1cc(=O)oc2c1c(OCCN1CCOCC1)cc1oc(C(=O)OCC)cc12 | > 50 µg/mL | > 50 µg/mL |
| CCCc1cc(=O)oc2c1c(OCCN1CCOCC1)cc1oc(C(=O)O)cc12 | > 50 µg/mL | > 50 µg/mL |
| CCCc1cc(=O)oc2c1c(OCCN1CCOCC1)cc1oc(C(=O)NN)cc12 | > 50 µg/mL | > 50 µg/mL |
| CCCc1cc(=O)oc2c1c1c(c3oc(NC(=O)OCC)cc32)C=CC(C)(C)O1 | > 50 µg/mL | > 50 µg/mL |
| CCCc1cc(=O)oc2c1c1c(c3oc(C#N)cc32)C=CC(C)(C)O1 | > 50 µg/mL | > 50 µg/mL |
| CCCc1cc(=O)oc2c1c1c(c3oc(C(=O)N=[N+]=[N-])cc32)C=CC(C)(C)O1 | > 50 µg/mL | > 50 µg/mL |
| CCCc1cc(=O)oc2c1c(OCCN1CCOCC1)cc1oc(C#N)cc12 | > 50 µg/mL | > 50 µg/mL |
| CCCc1cc(=O)oc2c1c(OCCN1CCOCC1)cc1oc(/C(N)=N\O)cc12 | > 50 µg/mL | > 50 µg/mL |
| CCCc1cc(=O)oc2c1c(OCCN1CCOCC1)cc1oc(C(=N)N)cc12 | > 50 µg/mL | > 50 µg/mL |
| CCCc1cc(=O)oc2c1c(OCCN1CCOCC1)cc1oc(-c3noc(=O)[nH]3)cc12 | > 50 µg/mL | > 50 µg/mL |
| CCCc1cc(=O)oc2c1c(OCCN1CCOCC1)cc1oc(-c3noc(C)n3)cc12 | > 50 µg/mL | > 50 µg/mL |
| CCCc1cc(=O)oc2c1c(OCCN1CCOCC1)cc1oc(-c3noc(C(F)(F)F)n3)cc12 | > 50 µg/mL | > 50 µg/mL |
